# Measured values as given in ChEMBL document CHEMBL1201862, “PubChem BioAssay data set” (2004).
# Active and inactive are the calls of the source.
# Columns and labels:
# Estrogen receptor beta = Estrogen receptor beta (Homo sapiens, UniProt Q92731);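 also: recombinant ER-beta bound to coactivator SRC1 peptide in presence of estradiol agonist; inhibitors block coactivator peptide binding and lower the FRET signal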
# [1] = target: Mitogen-activated protein kinase 10 (Homo sapiens, UniProt P53779); experiment: Dose response biochemical screening assay for inhibitors of c-Jun N-Terminal Kinase 3 (JNK3). [Related pubchem assays: 746 ]
# [2] = inhibitors of Vif binding to APOBEC3G peptide, primary screen, biochemical, TR-FRET, GST-Vif 1-94, biotin-A3G peptide, dose response retest (AID 1117319); type: functional;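 also: TR-FRET signal of purified GST-Vif binding a biotinylated A3G peptide; inhibitors lower the FRET signal by blocking Vif and A3G binding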
# cells = type: functional
# [3] = Jurkat T cell cytotoxicity, dose response, cytotoxicity control for P. falciparum gametocyte viability project, luminescence (AID 1117277); type: functional, cell-based;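 also: potency reflects loss of cellular ATP meaning fewer viable cells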
# [4] = P. falciparum late gametocyte killing, dose response, luminescence (AID 1117278); type: functional, cell-based;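 also: gametocytes exposed to compound for 24 hours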
# [5] = target: T1, Calpain-2 catalytic subunit (Sus scrofa, UniProt P43367); experiment: pig calpain II inhibitor potency, dose response, biochemical, fluorogenic peptide substrate (AID 1420); type: functional
# T1 sequence (P43367 whole entry): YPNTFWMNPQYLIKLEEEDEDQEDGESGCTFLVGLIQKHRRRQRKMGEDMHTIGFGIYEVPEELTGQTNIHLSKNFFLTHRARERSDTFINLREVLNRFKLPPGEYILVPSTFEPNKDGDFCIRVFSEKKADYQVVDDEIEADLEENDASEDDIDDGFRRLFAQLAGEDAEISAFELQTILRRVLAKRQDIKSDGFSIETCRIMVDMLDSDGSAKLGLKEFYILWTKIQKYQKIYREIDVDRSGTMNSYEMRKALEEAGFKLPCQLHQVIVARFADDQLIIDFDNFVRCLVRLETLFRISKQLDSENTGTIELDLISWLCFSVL
# INS1 = experiment: beta cell apoptosis inhibitors, cytokine rescue, dose response, luminescence, retest (AID 449756); type: functional, cell-based; settings: Rattus norvegicus;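 also: cell death triggered by IL-1 beta plus TNF-alpha plus IFN-gamma mixture; protective hits raise ATP signal compared with cytokine alone wells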
# [6] = target: T2, Rac GTPase-activating protein 1 (Homo sapiens, UniProt Q9H0H5); experiment: MgcRacGAP GTPase-activating activity inhibitors, confirmation, biochemical, ADP Hunter fluorescence, primary and confirmatory (AID 624330); type: functional
# T2 sequence (Q9H0H5 whole entry): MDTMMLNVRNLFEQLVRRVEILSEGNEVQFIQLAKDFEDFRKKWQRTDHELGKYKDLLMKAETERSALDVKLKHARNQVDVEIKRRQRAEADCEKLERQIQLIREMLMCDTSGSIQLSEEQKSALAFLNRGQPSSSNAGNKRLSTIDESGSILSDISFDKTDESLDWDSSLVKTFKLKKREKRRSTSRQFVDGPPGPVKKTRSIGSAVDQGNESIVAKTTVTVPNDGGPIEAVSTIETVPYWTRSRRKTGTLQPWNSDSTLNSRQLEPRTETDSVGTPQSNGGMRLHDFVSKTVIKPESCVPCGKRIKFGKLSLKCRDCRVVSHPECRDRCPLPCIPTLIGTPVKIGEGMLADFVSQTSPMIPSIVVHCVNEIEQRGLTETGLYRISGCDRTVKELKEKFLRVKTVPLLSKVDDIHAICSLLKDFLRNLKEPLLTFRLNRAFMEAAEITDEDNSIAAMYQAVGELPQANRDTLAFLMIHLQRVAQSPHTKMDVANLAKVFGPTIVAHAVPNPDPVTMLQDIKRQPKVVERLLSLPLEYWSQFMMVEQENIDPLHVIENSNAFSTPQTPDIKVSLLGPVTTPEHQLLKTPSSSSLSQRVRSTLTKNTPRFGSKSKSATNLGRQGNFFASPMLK
# [7] = target: T3, Histone-lysine N-methyltransferase NSD2 (Homo sapiens, UniProt O96028); type: biochemical
# T3 sequence (O96028 whole entry): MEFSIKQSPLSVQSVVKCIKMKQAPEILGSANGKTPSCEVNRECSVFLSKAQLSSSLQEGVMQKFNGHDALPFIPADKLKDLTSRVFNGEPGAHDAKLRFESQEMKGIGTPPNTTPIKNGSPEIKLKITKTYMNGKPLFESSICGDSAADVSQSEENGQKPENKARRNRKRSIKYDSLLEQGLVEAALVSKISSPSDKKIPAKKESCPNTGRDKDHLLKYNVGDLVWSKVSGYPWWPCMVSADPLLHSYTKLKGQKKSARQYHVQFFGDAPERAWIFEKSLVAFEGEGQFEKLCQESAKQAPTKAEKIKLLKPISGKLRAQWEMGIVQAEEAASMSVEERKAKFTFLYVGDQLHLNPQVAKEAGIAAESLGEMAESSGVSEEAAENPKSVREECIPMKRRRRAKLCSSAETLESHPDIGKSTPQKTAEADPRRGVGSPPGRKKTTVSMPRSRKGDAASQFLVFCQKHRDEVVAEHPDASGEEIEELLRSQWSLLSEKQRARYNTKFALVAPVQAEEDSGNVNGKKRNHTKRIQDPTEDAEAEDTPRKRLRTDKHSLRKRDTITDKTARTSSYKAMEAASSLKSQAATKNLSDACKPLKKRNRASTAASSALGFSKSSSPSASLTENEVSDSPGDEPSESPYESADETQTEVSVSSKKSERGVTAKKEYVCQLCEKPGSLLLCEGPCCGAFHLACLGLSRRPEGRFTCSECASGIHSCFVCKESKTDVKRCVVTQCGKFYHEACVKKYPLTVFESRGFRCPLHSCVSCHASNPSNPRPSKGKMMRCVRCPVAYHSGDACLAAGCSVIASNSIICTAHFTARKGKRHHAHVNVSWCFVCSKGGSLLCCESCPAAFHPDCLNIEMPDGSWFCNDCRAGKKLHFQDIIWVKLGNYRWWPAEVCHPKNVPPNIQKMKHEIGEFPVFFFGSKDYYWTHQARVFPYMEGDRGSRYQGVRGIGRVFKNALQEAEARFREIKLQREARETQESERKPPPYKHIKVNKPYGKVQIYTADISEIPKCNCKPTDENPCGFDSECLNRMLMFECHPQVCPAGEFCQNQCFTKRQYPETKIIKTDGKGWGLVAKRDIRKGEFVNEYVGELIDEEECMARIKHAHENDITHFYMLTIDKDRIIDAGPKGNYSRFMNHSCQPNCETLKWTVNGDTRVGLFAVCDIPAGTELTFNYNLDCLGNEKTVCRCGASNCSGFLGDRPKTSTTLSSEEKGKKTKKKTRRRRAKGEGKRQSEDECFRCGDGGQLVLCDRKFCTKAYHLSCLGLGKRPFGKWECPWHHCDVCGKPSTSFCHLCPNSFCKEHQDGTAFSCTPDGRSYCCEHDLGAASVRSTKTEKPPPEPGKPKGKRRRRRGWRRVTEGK
# [8] = target: T4, Small ubiquitin-related modifier 1 (Homo sapiens, UniProt P63165); experiment: inhibitors of SUMO1 partner interactions, dose response, biochemical, FRET (AID 624383); type: functional; settings: read-out: IC50_Mean
# [9] = target: Eukaryotic translation initiation factor 4E (Mus musculus, UniProt P63073); experiment: eIF4E–eIF4G protein interaction inhibitors, dose response, biochemical, TR-FRET (AID 855); type: functional;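 also: potency for disrupting eIF4E binding to eIF4GI seen as loss of FRET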
# [10] = THP-1 cell cytotoxicity, dose response, cytotoxicity control for Vif-APOBEC3G degradation inhibitor project, THP-1 cells (AID 1117359); type: functional; settings: Human immunodeficiency virus 1, THP-1
# ORF 73 = target: T5, ORF 73 (Human herpesvirus 8, UniProt O40947); experiment: inhibitors of C-LANA binding to LBS DNA, dose response, biochemical, fluorescence polarization, cherry-picked samples (AID 504725); parameters: species or system Human gammaherpesvirus 8;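 also: fluorescence polarization of a labeled DNA duplex reporting LANA DNA binding; potency is for inhibitors that block LANA binding to the DNA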
# T5 sequence (O40947 whole entry): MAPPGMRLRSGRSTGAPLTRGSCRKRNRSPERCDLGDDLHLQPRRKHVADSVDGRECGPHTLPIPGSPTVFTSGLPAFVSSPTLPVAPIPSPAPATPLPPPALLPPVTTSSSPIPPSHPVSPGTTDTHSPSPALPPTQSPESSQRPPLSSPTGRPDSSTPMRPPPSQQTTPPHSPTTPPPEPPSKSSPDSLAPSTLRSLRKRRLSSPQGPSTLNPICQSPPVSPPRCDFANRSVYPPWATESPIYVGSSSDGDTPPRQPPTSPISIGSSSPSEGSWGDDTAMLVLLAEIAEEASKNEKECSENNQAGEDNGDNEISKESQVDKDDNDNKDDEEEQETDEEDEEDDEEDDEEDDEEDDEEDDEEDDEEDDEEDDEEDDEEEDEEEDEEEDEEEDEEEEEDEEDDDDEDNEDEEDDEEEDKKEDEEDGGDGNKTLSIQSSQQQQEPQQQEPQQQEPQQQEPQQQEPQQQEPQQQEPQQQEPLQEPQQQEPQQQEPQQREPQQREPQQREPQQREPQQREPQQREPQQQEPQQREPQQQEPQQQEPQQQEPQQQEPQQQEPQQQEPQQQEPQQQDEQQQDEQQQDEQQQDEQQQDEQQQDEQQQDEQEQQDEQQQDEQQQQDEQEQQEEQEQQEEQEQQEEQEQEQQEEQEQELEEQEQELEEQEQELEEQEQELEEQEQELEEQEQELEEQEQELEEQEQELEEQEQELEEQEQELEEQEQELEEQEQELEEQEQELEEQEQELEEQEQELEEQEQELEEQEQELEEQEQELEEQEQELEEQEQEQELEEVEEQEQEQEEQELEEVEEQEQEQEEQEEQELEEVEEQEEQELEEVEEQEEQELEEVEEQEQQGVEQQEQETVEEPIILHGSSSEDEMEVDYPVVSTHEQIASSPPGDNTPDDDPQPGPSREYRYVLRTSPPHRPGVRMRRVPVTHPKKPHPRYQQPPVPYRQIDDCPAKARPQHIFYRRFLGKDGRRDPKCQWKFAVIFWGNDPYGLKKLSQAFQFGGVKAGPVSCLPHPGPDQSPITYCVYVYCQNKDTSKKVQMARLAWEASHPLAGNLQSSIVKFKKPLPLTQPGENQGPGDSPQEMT
# [11] = target: T4, Small ubiquitin-related modifier 1; experiment: inhibitors of SUMO1 peptide binding, dose response, biochemical, fluorescence polarization, uHTS hits (AID 624382); type: functional; settings: read-out: IC50_Mean
# [12] = target: Induced myeloid leukemia cell differentiation protein Mcl-1 (Homo sapiens, UniProt Q07820); type: functional
# [13] = target: T6, Polyadenylate-binding protein 1 (Homo sapiens, UniProt P11940); experiment: PABP1 MLLE–PAM2 binding inhibitor potency, dose response, biochemical, fluorescence polarization, FITC-PAM2 peptide (AID 602259); type: functional; settings: read-out: IC50_Mean
# [14] = target: T6, Polyadenylate-binding protein 1; experiment: PABP1 MLLE–PAM2 interaction inhibitors, dose response, miRNA deadenylation inhibitor project, biochemical, fluorescence polarization, Cy5-PAM2 peptide, secondary (AID 602260); type: functional; settings: read-out: IC50_Mean
# Nonstructural protein 1 = Nonstructural protein 1 (Influenza A virus, UniProt Q194T2); type: functional, Influenza A virus (A/California/07/2009(H1N1))
# Chain of Nonstructural protein 1 (Q194T2 whole entry): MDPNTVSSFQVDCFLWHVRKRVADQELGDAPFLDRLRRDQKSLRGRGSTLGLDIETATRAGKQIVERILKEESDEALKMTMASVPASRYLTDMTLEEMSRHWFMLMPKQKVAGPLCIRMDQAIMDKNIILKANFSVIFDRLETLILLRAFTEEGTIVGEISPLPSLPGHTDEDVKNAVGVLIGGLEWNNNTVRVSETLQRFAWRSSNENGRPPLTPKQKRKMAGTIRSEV
# Chain of Estrogen receptor beta (Q92731 whole entry): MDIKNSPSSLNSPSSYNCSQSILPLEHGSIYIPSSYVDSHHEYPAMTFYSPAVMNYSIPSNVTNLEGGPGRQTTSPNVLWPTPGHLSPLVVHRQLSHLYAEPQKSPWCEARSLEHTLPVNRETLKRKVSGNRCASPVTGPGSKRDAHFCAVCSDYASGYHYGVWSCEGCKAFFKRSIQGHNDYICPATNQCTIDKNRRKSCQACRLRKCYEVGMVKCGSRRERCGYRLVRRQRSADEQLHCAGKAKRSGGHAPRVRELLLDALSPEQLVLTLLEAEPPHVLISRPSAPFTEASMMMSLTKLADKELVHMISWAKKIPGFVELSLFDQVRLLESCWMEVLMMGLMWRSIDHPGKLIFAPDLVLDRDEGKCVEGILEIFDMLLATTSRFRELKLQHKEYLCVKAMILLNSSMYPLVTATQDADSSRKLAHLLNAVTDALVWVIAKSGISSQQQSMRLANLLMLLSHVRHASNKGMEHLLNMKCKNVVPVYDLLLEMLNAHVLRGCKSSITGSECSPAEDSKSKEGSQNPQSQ
# Chain of Mitogen-activated protein kinase 10 (P53779 whole entry): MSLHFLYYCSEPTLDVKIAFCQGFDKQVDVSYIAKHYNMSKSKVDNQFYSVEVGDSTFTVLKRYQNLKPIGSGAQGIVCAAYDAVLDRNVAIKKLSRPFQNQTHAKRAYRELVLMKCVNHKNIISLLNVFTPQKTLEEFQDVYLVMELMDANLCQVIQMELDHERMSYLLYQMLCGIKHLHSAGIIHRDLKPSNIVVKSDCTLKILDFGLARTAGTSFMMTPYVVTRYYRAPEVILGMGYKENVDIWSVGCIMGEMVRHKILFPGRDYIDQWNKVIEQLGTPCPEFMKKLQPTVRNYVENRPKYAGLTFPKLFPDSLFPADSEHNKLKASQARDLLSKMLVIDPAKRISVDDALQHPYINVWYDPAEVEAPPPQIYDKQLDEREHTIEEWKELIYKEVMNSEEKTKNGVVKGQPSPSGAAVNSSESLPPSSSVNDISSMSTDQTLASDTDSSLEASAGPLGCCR
# T6 sequence (P11940 whole entry): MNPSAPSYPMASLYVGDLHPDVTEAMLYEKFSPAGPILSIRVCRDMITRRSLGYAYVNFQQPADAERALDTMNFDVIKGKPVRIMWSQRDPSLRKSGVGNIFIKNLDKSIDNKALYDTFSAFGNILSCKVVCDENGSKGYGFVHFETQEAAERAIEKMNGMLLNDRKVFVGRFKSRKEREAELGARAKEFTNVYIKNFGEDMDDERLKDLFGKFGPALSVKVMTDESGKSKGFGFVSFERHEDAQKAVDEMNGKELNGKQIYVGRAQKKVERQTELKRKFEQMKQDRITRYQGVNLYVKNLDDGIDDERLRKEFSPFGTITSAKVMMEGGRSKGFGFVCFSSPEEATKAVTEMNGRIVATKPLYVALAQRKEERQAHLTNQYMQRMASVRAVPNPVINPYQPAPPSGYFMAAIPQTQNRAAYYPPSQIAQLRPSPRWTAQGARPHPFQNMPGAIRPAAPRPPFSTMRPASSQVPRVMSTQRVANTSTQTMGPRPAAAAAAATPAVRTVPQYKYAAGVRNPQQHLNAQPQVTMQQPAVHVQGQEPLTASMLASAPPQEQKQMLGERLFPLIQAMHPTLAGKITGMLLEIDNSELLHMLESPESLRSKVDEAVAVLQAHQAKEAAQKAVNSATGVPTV
# T4 sequence (P63165 whole entry): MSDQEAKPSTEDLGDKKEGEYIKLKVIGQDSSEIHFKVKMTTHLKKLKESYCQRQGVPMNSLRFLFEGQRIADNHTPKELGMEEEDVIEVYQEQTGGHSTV
# Chain of Eukaryotic translation initiation factor 4E (P63073 whole entry): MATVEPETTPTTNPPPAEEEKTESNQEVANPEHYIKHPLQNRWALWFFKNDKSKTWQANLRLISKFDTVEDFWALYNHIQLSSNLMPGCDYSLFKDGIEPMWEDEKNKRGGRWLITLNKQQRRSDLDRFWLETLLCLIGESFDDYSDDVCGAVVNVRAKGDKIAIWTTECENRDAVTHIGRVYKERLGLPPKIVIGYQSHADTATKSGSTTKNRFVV
# Chain of Induced myeloid leukemia cell differentiation protein Mcl-1 (Q07820 whole entry): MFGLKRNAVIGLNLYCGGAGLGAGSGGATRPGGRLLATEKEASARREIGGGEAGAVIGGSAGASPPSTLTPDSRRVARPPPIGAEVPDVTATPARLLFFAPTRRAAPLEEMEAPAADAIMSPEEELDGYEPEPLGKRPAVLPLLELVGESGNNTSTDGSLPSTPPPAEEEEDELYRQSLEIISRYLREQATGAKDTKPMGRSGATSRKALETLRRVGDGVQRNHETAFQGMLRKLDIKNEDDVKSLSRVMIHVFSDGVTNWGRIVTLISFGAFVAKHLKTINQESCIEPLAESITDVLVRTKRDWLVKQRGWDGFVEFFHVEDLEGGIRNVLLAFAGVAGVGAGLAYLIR
smiles,measurement,setting,value
CSc1ccccc1NC(=O)c1ccccc1N(Cc1ccccc1)S(C)(=O)=O,IC50,Estrogen receptor beta,> 50 µM (not active)
Cc1ccc(Nc2cc(-n3nc(C)cc3C)ncn2)cc1,IC50,[1],13.4 µM (not active)
CCn1c(S)nnc1Cc1c(C)[nH]c2ccccc12,IC50,[2],> 100 µM (active)
Cc1ccccc1NC(=O)c1[nH]cnc1C(=O)NCc1ccccc1,IC50,cells,10.3 µM (active)
same,IC50,[1],> 31 µM (not active)
Cc1ccc(-c2csc3nc(CN(C)Cc4ccccc4)nc(O)c23)cc1,IC50,[3],> 83.2 µM (inactive)
same,IC50,[4],> 109 µM (inactive)
O=C(Cc1cccs1)Nc1nncs1,IC50,Estrogen receptor beta,17 µM (active)
O=C(CN1CC[n+]2c(-c3cccs3)csc21)c1ccc(-c2ccccc2)cc1,IC50,[5],22.1 µM (not active)
same,AC50,INS1,2.39 µM (active)
same,IC50,[3],> 83.3 µM (inactive)
same,IC50,[4],> 109 µM (inactive)
N#Cc1c(SCC(N)=O)nc2c(c1-c1ccncc1)CCCC2,IC50,[3],> 83.3 µM (inactive)
same,IC50,[4],> 109 µM (inactive)
CSc1ccc(/C=N/Nc2cccc(C(=O)O)c2)cc1,IC50,[6],83.5 µM (active)
same,AC50,[7],2.93 µM (active)
same,IC50,[8],6.71 µM (active)
same,IC50,[9],50 µM (inactive)
same,CC50,[10],> 40 µM (active)
same,AC50,ORF 73,19.8 µM (active)
same,IC50,[11],> 66.6 µM (inactive)
same,IC50,[12],2.19 µM (active)
CCOC(=O)c1c(N)sc(=S)c2c1CCC2,IC50,[13],> 66 µM (inactive)
same,IC50,[14],> 66 µM (inactive)
same,IC50,Nonstructural protein 1,> 100 µM (active)
same,IC50,Estrogen receptor beta,> 50 µM (not active)
